Results on 3 compounds are retold here after patent publication US20060293307A1, “Oxazolidinone derivatives as antimicrobials” (priority 2002, published 2006).

Some results are limits rather than exact numbers.

One experiment has as its system M avium ATCC 700897. Nature of the experiment: MIC against MAC strains, agar dilution. It is filed as cell-based, Mycobacterium avium. The following applies: S. No. 05 Ma-6, M avium ATCC 700897; Middle Brook 7H10 + OADC, 37° C., 14-21 days.
The next experiment has as its system M. tuberculosis H37Rv. Nature of the experiment: MIC against M. tuberculosis strains, agar dilution. It is filed as cell-based, Mycobacterium tuberculosis. Particulars: S. No. 04 Mt-, Middle Brook 7H10 + OADC, 37° C., 14-21 days. (In agar dilution, organisms are placed on agar that contains the substance at set levels.)
Experiment [1] has as its system M. avium intracellulare 1211/96. As to the kind of experiment: MIC against MAC strains, agar dilution. It is filed as cell-based. Particulars: S. No. 13 Mai-5, M. avium intracellulare 1211/96; Middle Brook 7H10 + OADC, 37° C., 14-21 days.
Another experiment relates to M. tuberculosis M-164. Nature of the experiment: MIC against M. tuberculosis strains, agar dilution. In kind it is cell-based, Mycobacterium tuberculosis. The following applies: S. No. 10 Mt-, Middle Brook 7H10 + OADC, 37° C., 14-21 days.
A further experiment concerns M. tuberculosis 35801. As to the kind of experiment: MIC against M. tuberculosis strains, agar dilution. In kind it is cell-based, Mycobacterium tuberculosis. The following applies: S. No. 02 Mt-, Middle Brook 7H10 + OADC, 37° C., 14-21 days.
Another experiment concerns M avium ATCC 25291. As to the kind of experiment: MIC against MAC strains, agar dilution. Particulars: S. No. 02 Ma-2, M avium ATCC 25291; Middle Brook 7H10 + OADC, 37° C., 14-21 days. In kind it is cell-based, Mycobacterium avium.
Experiment [2] relates to M. avium intracellulare 4. As to the kind of experiment: MIC against MAC strains, agar dilution. It is filed as cell-based. The following applies: S. No. 11 Mai-2, M. avium intracellulare 4; Middle Brook 7H10 + OADC, 37° C., 14-21 days.
For the next experiment, the system named is M. tuberculosis H37Ra. As to the kind of experiment: MIC against M. tuberculosis strains, agar dilution. In kind it is cell-based, Mycobacterium tuberculosis. Particulars: S. No. 24 Mt-, Middle Brook 7H10 + OADC, 37° C., 14-21 days.
The test system of experiment [3] is M. tuberculosis SGPGI. Nature of the experiment: MIC against M. tuberculosis strains, agar dilution. In kind it is cell-based, Mycobacterium tuberculosis. Particulars: S. No. 07 Mt-, Middle Brook 7H10 + OADC, 37° C., 14-21 days.
The next experiment concerns M. tuberculosis V-3093. As to the kind of experiment: MIC against M. tuberculosis strains, agar dilution. It is filed as cell-based, Mycobacterium tuberculosis. The following applies: S. No. 14 Mt-, Middle Brook 7H10 + OADC, 37° C., 14-21 days.
Experiment [4] concerns M. avium intracellulare 18/98. As to the kind of experiment: MIC against MAC strains, agar dilution. It is filed as cell-based. Particulars: S. No. 16 Mai-9, M. avium intracellulare 18/98; Middle Brook 7H10 + OADC, 37° C., 14-21 days.
In experiment [5] the test system is M. avium intracellulare 540/96. Nature of the experiment: MIC against MAC strains, agar dilution. The following applies: S. No. 12 Mai-4, M. avium intracellulare 540/96; Middle Brook 7H10 + OADC, 37° C., 14-21 days. In kind it is cell-based.
In experiment [6] the test system is M. tuberculosis SGPGI. As to the kind of experiment: MIC against M. tuberculosis strains, agar dilution. In kind it is cell-based, Mycobacterium tuberculosis. The following applies: S. No. 05 Mt-, Middle Brook 7H10 + OADC, 37° C., 14-21 days.
The test system of the next experiment is M. intracellulare B-78/3. Nature of the experiment: MIC against MAC strains, agar dilution. It is filed as cell-based. The following applies: S. No. 09 Mi-4, M. intracellulare B-78/3; Middle Brook 7H10 + OADC, 37° C., 14-21 days.
The next experiment has as its system M. tuberculosis PC. Nature of the experiment: MIC against M. tuberculosis strains, agar dilution. In kind it is cell-based, Mycobacterium tuberculosis. The following applies: S. No. 20 Mt-, Middle Brook 7H10 + OADC, 37° C., 14-21 days.
For the next experiment, the system named is M. tuberculosis ATCC. As to the kind of experiment: MIC against M. tuberculosis strains, agar dilution. It is filed as cell-based, Mycobacterium tuberculosis. The following applies: S. No. 01.Mt-, Middle Brook 7H10 + OADC, 37° C., 14-21 days.
In experiment [7] the test system is M. tuberculosis SGPGI. Nature of the experiment: MIC against M. tuberculosis strains, agar dilution. It is filed as cell-based, Mycobacterium tuberculosis. Particulars: S. No. 06 Mt-, Middle Brook 7H10 + OADC, 37° C., 14-21 days.
A further experiment relates to M. intracellulare F21/12. As to the kind of experiment: MIC against MAC strains, agar dilution. Particulars: S. No. 08 Mi-3, M. intracellulare F21/12; Middle Brook 7H10 + OADC, 37° C., 14-21 days. In kind it is cell-based.
In experiment [8] the test system is M. avium intracellulare 559/97. As to the kind of experiment: MIC against MAC strains, agar dilution. It is filed as cell-based. Particulars: S. No. 15 Mai-7, M. avium intracellulare 559/97; Middle Brook 7H10 + OADC, 37° C., 14-21 days.

Broadly, the MIC is the smallest concentration in the dilution series that meets the test's criterion for growth inhibition. As to `CC[C@H]1OC(=O)[C@H](C)[C@@H](O[C@H]2C[C@@](C)(OC)[C@@H](O)[C@H](C)O2)[C@H](C)[C@@H](O[C@@H]2O[C@H](C)C[C@H](N(C)C)[C@H]2O)[C@](C)(OC)C[C@@H](C)C(=O)[C@H](C)[C@@H](O)[C@]1(C)O` [CLA], the MIC with M avium ATCC 700897 was 2.0 µg/mL; in the experiment on M. tuberculosis H37Rv, 32 µg/mL; in [1], 0.25 µg/mL; in the experiment with M. tuberculosis M-164, 16 µg/mL; in the experiment on M. tuberculosis 35801, greater than 32 µg/mL; with M avium ATCC 25291 it was 8.0 µg/mL. Moreover, the MIC in experiment [2] is less than 0.25 µg/mL; in the experiment with M. tuberculosis H37Ra, less than 0.25 µg/mL; in the experiment on M. tuberculosis SGPGI [3], 16 µg/mL; with M. tuberculosis V-3093, 16 µg/mL; in [4] it was 32 µg/mL; in [5], greater than 32 µg/mL. The MIC came to 8.0 µg/mL in the experiment on M. tuberculosis SGPGI [6]; 1.0 µg/mL in the experiment with M. intracellulare B-78/3; 4.0 µg/mL in the experiment on M. tuberculosis PC; 32 µg/mL in the experiment on M. tuberculosis ATCC; 32 µg/mL in the experiment on M. tuberculosis SGPGI [7]; 1.0 µg/mL with M. intracellulare F21/12. In addition, the minimum inhibitory concentration (MIC) in [8] was determined as 32 µg/mL.

As for `C[C@@H]1CN(c2c(F)c(N)c3c(=O)c(C(=O)O)cn(C4CC4)c3c2F)C[C@H](C)N1` [SPAR], the MIC in the experiment with M avium ATCC 700897 is 2.0 µg/mL; in the experiment on M. tuberculosis H37Rv, “≦0.125 μg/ml”; in experiment [1], 4.0 µg/mL; with M. tuberculosis M-164, 1.0 µg/mL; in the experiment on M. tuberculosis 35801, “≦0.125 μg/ml”; with M avium ATCC 25291 it was 32 µg/mL. Further, the minimum inhibitory concentration (MIC) was 1.0 µg/mL in experiment [2]; “≦0.12 μg/ml” with M. tuberculosis H37Ra; 4.0 µg/mL in the experiment on M. tuberculosis SGPGI [3]; “≦0.125 μg/ml” with M. tuberculosis V-3093; 2.0 µg/mL in experiment [4]; 4.0 µg/mL in [5]. The MIC in the experiment with M. tuberculosis SGPGI [6] is 0.25 µg/mL; with M. intracellulare B-78/3, 2.0 µg/mL; with M. tuberculosis PC it was 8.0 µg/mL; in the experiment on M. tuberculosis ATCC, “≦0.125 μg/ml”; in the experiment on M. tuberculosis SGPGI [7], 4.0 µg/mL; with M. intracellulare F21/12 it was 0.125 µg/mL. Moreover, the MIC in experiment [8] turned out to be 2.0 µg/mL.

For the compound `CCc1cc(C(N)=S)ccn1` [ETH], the MIC with M avium ATCC 700897 was greater than 32 µg/mL; in the experiment on M. tuberculosis H37Rv, “≦0.125 μg/ml”; in experiment [1], 1.0 µg/mL; in the experiment on M. tuberculosis M-164, greater than 32 µg/mL; in the experiment on M. tuberculosis 35801 it was 2.0 µg/mL; in the experiment with M avium ATCC 25291, 32 µg/mL. The MIC is 4.0 µg/mL in experiment [2]; 2.0 µg/mL with M. tuberculosis H37Ra; greater than 32 µg/mL in the experiment with M. tuberculosis SGPGI [3]; 2.0 µg/mL in the experiment with M. tuberculosis V-3093; 32 µg/mL in [4]; 32 µg/mL in [5]. For the same compound, the minimal inhibitory concentration (MIC) in the experiment with M. tuberculosis SGPGI [6] was 4.0 µg/mL; in the experiment with M. intracellulare B-78/3, 4.0 µg/mL; with M. tuberculosis PC it was 16 µg/mL; in the experiment on M. tuberculosis ATCC it was 2.0 µg/mL; in the experiment with M. tuberculosis SGPGI [7], greater than 32 µg/mL; in the experiment on M. intracellulare F21/12 it was 8.0 µg/mL. Also, the minimal inhibitory concentration (MIC) in [8] is greater than 32 µg/mL.
